Like-named read-outs stand apart in the source and are kept apart here.

Broadly, the inhibition is the drop in the measured response relative to a control, in per cent.

Experiment [1] concerns Magnaporthe grisea (Pyricularia oryzae—PYRIOR). Description: microbe, parasite or virus in culture. Type of experiment: cell-based. Particulars: Pyricularia oryzae, read-out: PYRIOR in vitro Growth Inhibition.
The test system of experiment [2] is Rhizoctonia solani (RHIZSO). Nature of the experiment: microbe, parasite or virus in culture. Type of experiment: cell-based. To be noted: Rhizoctonia solani, read-out: RHIZSO in vitro Growth Inhibition.
Experiment [3] concerns Mycosphaerella graminicola (Septoria tritici—SEPTTR). Nature of the experiment: In vitro fungal growth inhibition, Mycosphaerella graminicola (SEPTTR). It is filed as cell-based. Particulars: Zymoseptoria tritici, read-out: SEPTTR in vitro Growth Inhibition.
In experiment [4] the test system is Stagonospora nodorum (Leptosphaeria nodorum—LEPTNO). Nature of the experiment: In vitro fungal growth inhibition, Stagonospora nodorum (LEPTNO). It is filed as cell-based. Particulars: Leptosphaeria, read-out: LEPTNO in vitro Growth Inhibition.
For the next experiment, the system named is Ustilago maydis (USTIMA). Nature of the experiment: microbe, parasite or virus in culture. It is filed as cell-based. Particulars: Mycosarcoma maydis, read-out: USTIMA in vitro Growth Inhibition.
Experiment [5] deals with Phytophthora infestans (PHYTIN). Description: microbe, parasite or virus in culture. Type of experiment: cell-based. Particulars: Phytophthora infestans, read-out: PHYTIN in vitro Growth Inhibition.
Experiment [6] has as its system Phytophthora infestans—PHYTIN. Nature of the experiment: whole plant or invertebrate. Type of experiment: in vivo. To be noted: Phytophthora, in Solanum lycopersicum, 24 h, read-out: PHYTIN in vivo 1 Day Protectant.
The subject of experiment [7] is Puccinia recondita—PUCCRT. Nature of the experiment: Brown Rust of Wheat, in vivo whole plant, 24 Hour Protectant. To be noted: for pest or weed control at 100 ppm: Puccinia, read-out: PUCCRT in vivo 1 Day Protectant.
A further experiment deals with Erysiphe graminis—ERYSGT. Nature of the experiment: Powdery Mildew of Wheat, in vivo whole plant, 24 Hour Protectant. To be noted: Erysiphe, read-out: ERYSGT in vivo 1 Day Protectant.
For another experiment, the system named is Septoria tritici—SEPTTR. Nature of the experiment: Leaf Blotch of Wheat, in vivo whole plant, 24 Hour Protectant. To be noted: for pest or weed control at 100 ppm: Zymoseptoria tritici, 24 h, control of fungal infection vs untreated plants, read-out: SEPTTR in vivo 1 Day Protectant.
Experiment [8] deals with Leptosphaeria nodorum—LEPTNO. Description: Glume Blotch of Wheat, in vivo whole plant, 24 Hour Protectant. Particulars: for pest or weed control at 100 ppm: Leptosphaeria, read-out: LEPTNO in vivo 1 Day Protectant.
[9] abbreviates: 100 ppm spray, wheat, 24 hour protectant, control of fungal infection vs untreated plants.
Setting [10] is: 100 ppm spray, wheat, 24 hour protectant.
The mark [11] stands for this setting: wheat plants sprayed at 100 ppm, inoculated after 24 hours, control of fungal infection vs untreated plants.
[12] abbreviates: wheat plants sprayed at 100 ppm, inoculated after 24 hours.
[13] abbreviates: 100 ppm spray, wheat, 24 hour protectant, % control of fungal infection vs untreated plants.

For the compound `COc1ccnc(C(=O)NC(COC(=O)CC(C)OC(=O)CCc2ccccc2)C(=O)OC(C)C)c1O` (stereo not shown) [Compound 353], the inhibition at 25 ppm (in experiment [1]; in [2]; in experiment [3] (25 ppm in growth medium); in experiment [4] (25 ppm in growth medium); with Ustilago maydis (USTIMA); in [5]) was under 80% in each case. For the same compound, the pest or weed control at 100 ppm (in [6]; in the experiment on Erysiphe graminis—ERYSGT (setting [9]); with Septoria tritici—SEPTTR (setting [10]); in experiment [8] (setting [9])) was under 25% throughout. Further, the “PUCCRT in vivo 1 Day Protectant” value in experiment [7] (setting [9]) is listed as “+ +”.
As to `COc1ccnc(C(=O)NC2CC(C)(C)/C=C\CC(C)(C)C2)c1OC(C)=O` (stereo not shown) [Compound 580], the inhibition at 25 ppm (in experiment [1]; in [2]; in experiment [3] (25 ppm in the growth medium); in experiment [4] (25 ppm in the growth medium); in the experiment on Ustilago maydis (USTIMA); in experiment [5]) was under 80% in each case. Also, the pest or weed control at 100 ppm was under 25% in experiment [6], 25 to 74% in experiment [7] (setting [11]), under 25% in the experiment with Erysiphe graminis—ERYSGT (setting [11]) and 25 to 74% with Septoria tritici—SEPTTR (setting [12]). Moreover, the “LEPTNO in vivo 1 Day Protectant” value in experiment [8] (setting [11]) is “+ +”.
In the case of `COC(=O)C(COC(=O)CCc1ccccc1)NC(=O)c1nccc(OC)c1OC(C)=O` (stereo not shown) [Compound 583], the inhibition at 25 ppm (in experiment [1]; in [2]; in [3] (25 ppm in the growth medium); in [4] (25 ppm in the growth medium); with Ustilago maydis (USTIMA); in experiment [5]) was under 80% throughout. Moreover, the pest or weed control at 100 ppm in experiment [6] is under 25%; in [7] (setting [11]), under 25%; in the experiment with Erysiphe graminis—ERYSGT (setting [11]), under 25%; in the experiment with Septoria tritici—SEPTTR (setting [12]), under 25%; in experiment [8] (setting [11]), 25 to 74%.
Regarding `CCCCCCCCCCCCC(=O)O[C@H]1[C@H](C)OC(=O)[C@@H](NC(=O)c2nccc(OC)c2O)COC(=O)[C@@H]1Cc1ccccc1` [Compound 397], the inhibition at 25 ppm (in experiment [1]; in [2]; in [3] (25 ppm in growth medium); in [4] (25 ppm in growth medium); in the experiment with Ustilago maydis (USTIMA); in [5]) was under 80% throughout. Further, the pest or weed control at 100 ppm in experiment [6] is under 25%; in experiment [7] (setting [9]), 25 to 74%; in the experiment on Erysiphe graminis—ERYSGT (setting [9]), under 25%; with Septoria tritici—SEPTTR (setting [10]), 25 to 74%; in experiment [8] (setting [9]) it was 25 to 74%.
For the compound `COc1ccnc(C(=O)N[C@H]2COC(=O)[C@H](Cc3ccccc3)[C@@H](OC(=O)NC(C)(C)C)[C@H](C)OC2=O)c1O` [Compound 400], the inhibition at 25 ppm in experiment [1] is over 80%; in [2], under 80%; in experiment [3] (25 ppm in growth medium) it was under 80%; in [4] (25 ppm in growth medium), under 80%; with Ustilago maydis (USTIMA), under 80%; in experiment [5], under 80%. In addition, the pest or weed control at 100 ppm in [6] was under 25%; in experiment [7] (setting [9]) it was 25 to 74%; in the experiment on Erysiphe graminis—ERYSGT (setting [9]), 25 to 74%; in the experiment on Septoria tritici—SEPTTR (setting [10]), 25 to 74%. Further, the “LEPTNO in vivo 1 Day Protectant” value in [8] (setting [9]) was “+ +”.
As for `CCCCCc1ccc(C(C)NC(=O)c2nc(Br)ccc2O)cc1` (stereo not shown) [Compound 489], the inhibition at 25 ppm (in experiment [1]; in [2]; in [3] (25 ppm in the growth medium); in experiment [4] (25 ppm in the growth medium); in the experiment on Ustilago maydis (USTIMA); in experiment [5]) was under 80% each time. In addition, the pest or weed control at 100 ppm in experiment [6] is under 25%; in experiment [7] (setting [11]), 25 to 74%; with Erysiphe graminis—ERYSGT (setting [11]) it was under 25%; in the experiment on Septoria tritici—SEPTTR (setting [12]), under 25%; in experiment [8] (setting [11]), under 25%.
Consider `COc1ccnc(C(=O)Nc2ccc(C(=O)c3cccc(C(F)(F)F)c3)cc2)c1O` [Compound 405], for which the inhibition at 25 ppm is under 80% in experiment [1]; under 80% in experiment [2]; under 80% in experiment [3] (25 ppm in growth medium); over 80% in [4] (25 ppm in growth medium); under 80% in the experiment on Ustilago maydis (USTIMA); under 80% in [5]. For the same compound, the pest or weed control at 100 ppm was under 25% in [6]; under 25% in [7] (setting [9]); under 25% with Erysiphe graminis—ERYSGT (setting [9]); under 25% with Septoria tritici—SEPTTR (setting [10]); 25 to 74% in [8] (setting [9]).
Take `COc1ccnc(C(=O)N[C@@H](Cc2ccc(OCc3ccccc3)cc2)C(=O)O)c1O` [Compound 337]: the inhibition at 25 ppm (in experiment [1]; in experiment [2]; in experiment [3] (25 ppm in growth medium); in experiment [4] (25 ppm in growth medium); in the experiment on Ustilago maydis (USTIMA); in experiment [5]) was under 80% each time. The pest or weed control at 100 ppm was under 25% in [6], 25 to 74% in [7] (setting [9]), under 25% in the experiment on Erysiphe graminis—ERYSGT (setting [9]) and under 25% with Septoria tritici—SEPTTR (setting [10]). The “LEPTNO in vivo 1 Day Protectant” value in [8] (setting [9]) was “+ +”.
As for `COc1ccnc(C(=O)NC2CC(C)(C)C=C[C@@H](C)[C@@H]2C)c1OC(C)=O` (stereo partly shown) [Compound 578], the inhibition at 25 ppm (in [1]; in experiment [2]; in experiment [3] (25 ppm in the growth medium); in [4] (25 ppm in the growth medium); in the experiment with Ustilago maydis (USTIMA); in experiment [5]) was under 80% throughout. Moreover, the pest or weed control at 100 ppm was under 25% in [6]; under 25% in experiment [7] (setting [11]); under 25% in the experiment on Erysiphe graminis—ERYSGT (setting [11]); 25 to 74% with Septoria tritici—SEPTTR (setting [12]); 25 to 74% in experiment [8] (setting [11]).
Regarding `COc1ccnc(C(=O)Nc2ccc(/C(=N/O)c3cccc(C(F)(F)F)c3)cc2)c1O` [Compound 407], the inhibition at 25 ppm is under 80% in experiment [1]; under 80% in experiment [2]; over 80% in experiment [3] (25 ppm in growth medium); under 80% in experiment [4] (25 ppm in growth medium); under 80% in the experiment with Ustilago maydis (USTIMA); under 80% in experiment [5]. The pest or weed control at 100 ppm in experiment [6] is under 25%; in [7] (setting [9]), under 25%; with Erysiphe graminis—ERYSGT (setting [9]), under 25%; in the experiment with Septoria tritici—SEPTTR (setting [10]), 25 to 74%; in experiment [8] (setting [9]) it was 25 to 74%.
For `COc1ccnc(C(=O)N[C@H]2COC(=O)[C@H](Cc3ccccc3)[C@@H](OC(=O)C(C)C)[C@H](C)OC2=O)c1OC(=O)C(C)(C)C` [Compound 605], the inhibition at 25 ppm (in [1]; in [2]; in experiment [3] (25 ppm in growth medium); in experiment [4] (25 ppm in growth medium); with Ustilago maydis (USTIMA); in experiment [5]) was under 80% throughout. For the same compound, the pest or weed control at 100 ppm (in experiment [6]; in the experiment on Erysiphe graminis—ERYSGT (setting [13])) was under 25% in each case. Further, the “PUCCRT in vivo 1 Day Protectant” value in experiment [7] (setting [13]) was “+ +”. For the same compound, in the experiment with Septoria tritici—SEPTTR (setting [13]), the “SEPTTR in vivo 1 Day Protectant” value is reported as “+ +”. Also, the “LEPTNO in vivo 1 Day Protectant” value in [8] (setting [13]) is given as “+ +”.
